Data reported in patent US11945781B2, “Compounds for the treatment of acute and chronic kidney disease” (Southern Research Institute, priority 2020, dated 2024).
Read-outs that look alike come from different tables or passages of the source.

Tested on: heme oxygenase-1 (HO-1)
Experiment: HO-1 promoter luciferase reporter screen (pHOGL3/4.5+220 stable HEK293 cells)
Assay type: cell-based, human
Settings: Table 1; for Emax: HEK293, Emax as % of 5 μM hemin; for EC50: evaluation of thioquinolinones, HEK293 HO-1 reporter
Method: The generation of the pHOGL3/4.5+220 construct is described in Deshane, et al. (2010) “SpI regulates chromatin looping between an intronic enhancer and distal promoter of the human heme oxygenase-1 gene in renal cells” J Biol Chem 285(22): 16476-86. See also FIG. 1.
Briefly, BamHI sites were added to the 4.5-kb PCR product generated by long-range PCR from a bacterial artificial chromosome clone containing portions of chromosome 22 (accession no. Z82244), including the HO-1 gene. This fragment was cloned into the Bg/II restriction site of the multiple cloning region to make the parental clone (pHOGL3/4.5). The 220-bp intronic enhancer was amplified with SalI sites on either end and cloned into the SalI site of the vector to generate pHOGL3/4.5+220.
In order to generate cells that stably express luciferase expression vectors that lack a mammalian antibiotic selection cassette, HEK293 cells were co-transfected with either pHOGL3/4.5+220 (Deshane et al, 2010) or the Triple Mutant construct (Liby, Hock et al, 2005; Hock et al, 2007) and pcDNA3.1 Zeocin using Lipofectamine 2000. Cells were cultured in Zeocin (400 ug/ml; Invitrogen) for selection. Individual clones were sorted by flow cytometry and plated into a 96-well plate at a density of one cell per well. Clones were maintained and expanded in complete media (DMEM/10% FBS/1× antibiotic-antimycotic) supplemented with 100 ug/ml Zeocin, and incubated at 37° C. in 5% carbon dioxide. Incorporation of the Luciferase expression vectors was validated by assaying for luciferase. […]

| Compound | EC50 (Homo sapiens, read-out: EC50) | EC50 | Emax (Homo sapiens) |
| --- | --- | --- | --- |
| Oc1ccc(CSc2cccc3cccnc23)cc1 [Compound 2] | 340 nM | – | 127% |
| Oc1ccc(CSc2cccc3cccnc23)cc1F [Compound 3] | 200 nM | – | 83.7% |
| Oc1ccc(CSc2cccc3cccnc23)cc1Cl [Compound 4] | 340 nM | – | 106% |
| Oc1c(F)c(F)c(CSc2cccc3cccnc23)c(F)c1F [Compound 6] | 1050 nM | – | 113% |
| Fc1cc(F)cc(CSc2cccc3cccnc23)c1 [Compound 8] | – | Inactive | – |
| Oc1ccc(COc2cccc3cccnc23)cc1 [Compound 11] | – | Inactive | – |
| Oc1ccc(CCSc2cccc3cccnc23)cc1 [Compound 13] | 19000 nM | – | 122% |
| Oc1ccc(CSc2cccc3cccnc23)cc1 [Compound 14] | – | Inactive | – |
| Oc1c(F)cc(CSc2ccnc3ccccc23)cc1F [Compound 15] | – | Inactive | – |
| Oc1c(F)cc(CSc2ccncc2)cc1F [Compound 17] | – | Inactive | – |

Further lines, with some results ahead:

| EC50 (Homo sapiens, read-out: EC50) | EC50 | Compound | Emax (Homo sapiens) |
| --- | --- | --- | --- |
| 430 nM | – | Oc1c(F)cc(CSc2cccc3cccnc23)cc1F [Compound 1, 2,6-difluoro-4-((quinolin-8-ylthio)methyl)phenol] | 154% |
| 420 nM | – | Oc1c(F)cc(CSc2cccc3cccnc23)cc1Cl [Compound 5] | 113% |
| 5250 nM | – | Oc1c(F)cc(F)cc1CSc1cccc2cccnc12 [Compound 7] | 55.2% |
| 340 nM | – | [O-][S+](Cc1cc(F)c(O)c(F)c1)c1cccc2cccnc12 (stereo not drawn) [Compound 9] | 106% |
| – | Inactive | O=S(=O)(Cc1cc(F)c(O)c(F)c1)c1cccc2cccnc12 [Compound 10] | – |
| – | Inactive | Oc1c(F)cc(CCSc2cccc3cccnc23)cc1F [Compound 12] | – |
| – | Inactive | Oc1c(F)cc(CSc2nccc3ccccc23)cc1F [Compound 16] | – |
| – | Inactive | Oc1c(F)cc(CSc2cccc3ccccc23)cc1F [Compound 18] | – |
| – | Inactive | COc1c(F)cc(CSc2cccc3cccnc23)cc1F [Compound 19, 8-((3,5-difluoro-4-methoxybenzyl)thio)quinolone] | – |
| 20000 nM | – | COc1c(F)cc(CCSc2cccc3cccnc23)cc1F [Compound 20] | 69.9% |
| – | Inactive | O=S(=O)(Nc1cc(F)c(O)c(F)c1)c1cccc2cccnc12 [Compound 21] | – |
| – | Inactive | O=C(Nc1cccc2cccnc12)c1cc(F)c(O)c(F)c1 [Compound 22] | – |
| – | Inactive | O=C(Nc1cc(F)c(O)c(F)c1)c1cccc2cccnc12 [Compound 23] | – |
